Measurements as given in article PMC5484485, “In vitro and in vivo effects of kisspeptin antagonists p234, p271, p354, and p356 on GPR54 activation” (PLoS ONE, 2017).
Square brackets hold non-standard residues; d marks the D form. Ends that are not written are not given here.

Target: human GPR54 (Homo sapiens, UniProt Q969F8)
Experiment: Flow cytometric calcium flux assay, KP10-induced response after 15 min pre-incubation with antagonist
Assay type: cell-based
Design: host or cells: rat hematopoietic CHEM1 cells expressing endogenous Galpha15
Conditions: all concentrations 10^-13 to 10^-5 M; 10^-8 M KP10; 15 min pre-incubation; P = 1.00
Description: In vitro analyses of the effects of kisspeptin and kisspeptin antagonists, were performed using HT[…] cells (rat hematopoietic CHEM1 cells expressing endogenous Gα15 and, stably expressing the human GPR54 receptor (Millipore BV, the Netherlands), CHEM1-GPR54. Cells were counted and suspended in HBSS+++ at a concentration of 5*10^6 cells/ml. To load the cells with the fluorescent dye ester they were incubated in HBSS+++ adjusted to a concentration of 2 μM Fluo-3 AM (Molecular Probes, Life Technologies, the Netherlands) for 1h at 37°C under agitation in the dark. After incubation, the cells were washed by adding HBSS+++ to a volume of 10 ml followed by centrifugation (5 min, 150 x g) to remove excess of Fluo-3AM. […] Thereafter the tube was removed briefly and 25 μl peptide (see below) was added, after which aspiration and analysis continued. For statistical analyses fluorescent data recorded during the time interval 30-60 seconds after initiation of measurement were used. […] We then assessed whether these antagonists could compete with KP10 for its receptor. […] For this purpose 25 μl quantities of the antagonists were added to 200 μl of Fluo-3 AM labelled cells (10^6 cells/ml) and incubated for 15 min. […] Peptides p354 and p356 were tested three times with both human and canine KP10; while peptides p234 and p271 were tested three times with human KP10 and once with canine KP10. To analyze the effects of different concentrations of the KP antagonists on the calcium response due to KP10 addition, the differences in fluorescence before and after KP10 were calculated (the calcium response). The calcium response ratios were calculated as the calcium response of the CHEM1-GPR54 cells pre-incubated with different concentrations of KP antagonist and the control (the calcium response of the cells without KP antagonist). These calcium response ratios were log transformed and used for further analysis by univariate analysis of variance, with the Dunnett's test as post hoc test. The calcium response ratios were set as dependent variables and the different concentrations of the antagonists and the two types of KP10 were used as fixed factors. The residuals were normally distributed.

Sequence of human GPR54 (Q969F8 whole entry): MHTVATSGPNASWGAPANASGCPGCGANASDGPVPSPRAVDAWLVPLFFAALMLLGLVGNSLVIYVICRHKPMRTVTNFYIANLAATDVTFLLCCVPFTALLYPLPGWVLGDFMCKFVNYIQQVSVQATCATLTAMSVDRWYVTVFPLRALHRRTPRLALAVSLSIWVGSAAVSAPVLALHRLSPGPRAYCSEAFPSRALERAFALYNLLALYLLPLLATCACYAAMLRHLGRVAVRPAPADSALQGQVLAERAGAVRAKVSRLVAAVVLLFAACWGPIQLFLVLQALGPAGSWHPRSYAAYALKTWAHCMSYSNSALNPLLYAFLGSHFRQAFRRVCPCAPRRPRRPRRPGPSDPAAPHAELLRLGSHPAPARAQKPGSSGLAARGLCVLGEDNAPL

difference in calcium response ratio between controls and antagonist: not significant
Substance: RRMKWKKY[dA]NWNGFG[dW]RF-NH2 [p271, p234 with a penetratin tag]
